Experimental data reported in patent US20120035247A1, “RNA Interference Mediated Inhibition of Signal Transducer and Activator of Transcription 6 (STAT6) Gene Expression Using Short Interfering Nucleic Acid (siNA)” (Merck Sharp & Dohme Corp., priority 2009, published 2012).
[invAb] = inverted abasic unit; d = 2'-deoxy (DNA); m = 2'-O-methyl; r = 2'-OH (RNA); f = 2'-fluoro

Tests used:
STAT6 mRNA [1] = assay: STAT6 siNA screen and dose response in human A549 cells, STAT6 mRNA by quantitative RT-PCR (Taqman); assay type: cell-based; details: human A549 cells, 10 nM siNA, 24 hrs, normalized to GAPDH and non-targeting control, mean ± S.D., n = 3
Method: A549 (human; ATCC cat# CCL-185): Cells were cultured at 37° C. in the presence of 5% CO2 and grown in Ham's F12K medium with 2 mM L-glutamine adjusted to contain 1.5 g/L sodium bicarbonate and supplemented with fetal bovine serum at a final concentration of 10%, 100 μg/mL of streptomycin, and 100 U/mL penicillin.
(§1) Cells were plated in all wells of a tissue-culture treated, 96-well plate at a final count of 5000 cells/well in […], of the appropriate culture media. The cells were cultured for 24 hours after plating at 37° C. in the presence of 5% CO2.
(§2) After 24 hours, complexes containing siNA and RNAiMax were created as follows: A solution of RNAiMax diluted 33-fold in OPTI-MEM was prepared. In parallel, solutions of the siNAs for testing were prepared to a final concentration of 120 nM in OPTI-MEM. After incubation of RNAiMax/OPTI-MEM solution at room temperature for 5 min, an equal volume of the siNA solution and the RNAiMax solution were added together for each of the siNAs.
(§3) This solution was incubated at room temperature for 20 minutes. After incubation, 20 uL of the solution was added to each of the relevant wells. The final concentration of siNA in each well was 10 nM and the final volume of RNAiMax in each well was 0.3u1.
(§4) The time of incubation with the RNAiMax-siNA complexes was 24 hours and there was no change in media between transfection and harvesting, unless otherwise indicated.
(§5) RNA was extracted from a 96-well plate using the TaqMan® Gene Expression Cells-to-CT™ Kit (Cat#4399002) with a modified protocol. Briefly, a 60 uL (1 plate) or 110 uL (2 plates) of the Lysis Solution with DNase I was dispensed into each well of the Lysis Buffer Plate (twin.tec full skirt plate). The lysis buffer and stop plates were stored at 4° C. until the cells were washed.
(§6) The plate was spun at 1100 rpm for 5 minutes. The culture medium was aspirated and discarded from the wells of the culture plate. The lysis was performed automatically using a BioMek FX instrument and method. After the Biomek method was completed, the lysis plate was incubated for 2 min. at room temperature. The lysis plate can be stored for 2 hours at 4° C., or at −20° C. or −80° C. for two months.
(§7) Each well of the reverse transcription plate required 10 uL of 2× reverse transcriptase Buffer, luL of 20× reverse transcription enzyme and 2 uL of nuclease-free water. The reverse transcription master mix was prepared by mixing 2× reverse transcription buffer, 20× reverse transcription enzyme mix, and nuclease-free water. 13 uL of the reverse transcription master mix was dispensed into each well of the reverse transcription plate (semi-skirted). A separate reverse transcription plate was prepared for each cell plate. The plate was loaded onto a Biomek NX or Biomek FX Dual-96 and the Biomek method was run. The program is programmed to automatically added 7 uL of lysate from the cell lysis procedure described above into each well of the reverse transcription plate. The plate is sealed and spun on a centrifuge (1000 rpm for 30 seconds) to settle the contents to the bottom of the reverse transcription plate. The plate is placed in a thermocycler at 37° C. for 60 min, 95° C. for 5 min, and 4° C. until the plate is removed from the thermocycler. Upon removal, if not used immediately, the plate was frozen at −20° C.
(§8) A series of probes and primers were used to detect the various mRNA transcripts of the genes of 13-Actin (human cell line only), and of STATE and GAPDH in mouse and human cell lines. All Taqman probes and primers for the experiments here-in described were supplied as pre-validated sets by Applied Biosystems, Inc. (see Table 2).
The assays were performed on an ABI 7900 instrument, according to the manufacturer's instructions. A TaqMan Gene Expression Master Mix (provided in the Cells-to-CTT™, Applied Biosystems, Cat #4399002) was used. The PCR reactions were carried out at 50° C. for 2 min, 95° C. for 20 min followed by 40 cycles at 95° C. for 15 secs and 60° C. for 1 min. […]

STAT6 mRNA [2] = assay: STAT6 siNA screen in mouse NIH 3T3 cells, STAT6 mRNA by quantitative RT-PCR (Taqman); assay type: cell-based; details: mouse NIH3T3 cells, 10 nM siNA, 24 hrs, normalized to GAPDH and non-targeting control, n = 2
Method: NIH 3T3 (mouse; ATCC cat# CRL-1658): Cells were cultured at 37° C. in the presence of 5% CO2 and grown in Dulbecco's modified Eagle's medium (DMEM) with 4 mM L-glutamine adjusted to contain 1.5 g/L sodium bicarbonate and 4.5 g/L glucose and supplemented with fetal bovine serum at a final concentration of 10%, 100 μg/mL of streptomycin, and 100 U/mL penicillin.
as §1, §2, §3, §4, §5, §6, §7, §8
The assays were performed on an ABI 7900 instrument, according to the manufacturer's instructions. A TaqMan Gene Expression Master Mix (provided in the Cells-to-CTT™, Applied Biosystems, Cat #4399002) was used. […]

Substance	% KD STAT6 (STAT6 mRNA [1])	% KD STAT6 (STAT6 mRNA [2])
30000-DC: STAT6 siNA duplex; sense SEQ ID NO: 64, antisense SEQ ID NO: 65; target CACAUACAGAGCUCUCUGA, site 3114 (sense CACAUACAGAGCUCUCUGATT; antisense UCAGAGAGCUCUGUAUGUGUU; sense: DNA at AGT, 2'-fluoro at CU, [invAb] at 5' end, 3' end, backbone not given here; antisense: sugars from the 5' end rrrmmmmmffffmfmfmfmmm, backbone not given here) [STAT6 siNA duplex; target CACAUACAGAGCUCUCUGA, site 3114]	40.5 ± 12.5%	−21.9 ± 5.7%
29996-DC: STAT6 siNA duplex; sense SEQ ID NO: 56, antisense SEQ ID NO: 57; target GCACCAUCUUGCAACACAU, site 495 (sense GCACCAUCUUGCAACACAUTT; antisense AUGUGUUGCAAGAUGGUGCUU; sense: DNA at AGT, 2'-fluoro at CU, [invAb] at 5' end, 3' end, backbone not given here; antisense: sugars from the 5' end rrrfmffmfmmmmfmmfmfmm, backbone not given here) [STAT6 siNA duplex; target GCACCAUCUUGCAACACAU, site 495]	49.5 ± 5.5%	−10.9 ± 0.1%
30004-DC: STAT6 siNA duplex; sense SEQ ID NO: 72, antisense SEQ ID NO: 73; target GCCUUCUUAUGACCUUGGA, site 2272 (sense GCCUUCUUAUGACCUUGGATT; antisense UCCAAGGUCAUAAGAAGGCUU; sense: DNA at AGT, 2'-fluoro at CU, [invAb] at 5' end, 3' end, backbone not given here; antisense: sugars from the 5' end rrrmmmmffmfmmmmmmmfmm, backbone not given here) [STAT6 siNA duplex; target GCCUUCUUAUGACCUUGGA, site 2272]	3.1 ± 19.6%	−12.8 ± 9.1%
30023-DC: STAT6 siNA duplex; sense SEQ ID NO: 110, antisense SEQ ID NO: 111; target CACCUUAUGAUCUUGGAAU, site 2288 (sense CACCUUAUGAUCUUGGAAUTT; antisense AUUCCAAGAUCAUAAGGUGUU; sense: DNA at AGT, 2'-fluoro at CU, [invAb] at 5' end, 3' end, backbone not given here; antisense: sugars from the 5' end rrrffmmmmffmfmmmmfmmm, backbone not given here) [STAT6 siNA duplex; target CACCUUAUGAUCUUGGAAU, site 2288]	15.3 ± 05.4%	−0.8 ± 3.8%
30012-DC: STAT6 siNA duplex; sense SEQ ID NO: 88, antisense SEQ ID NO: 89; target CAUCGUGCAUGGUAACCAA, site 1521 (sense CAUCGUGCAUGGUAACCAATT; antisense UUGGUUACCAUGCACGAUGUU; sense: DNA at AGT, 2'-fluoro at CU, [invAb] at 5' end, 3' end, backbone not given here; antisense: sugars from the 5' end rrrmffmffmfmfmfmmfmmm, backbone not given here) [STAT6 siNA duplex; target CAUCGUGCAUGGUAACCAA, site 1521]	−13.7 ± 15.8%	18 ± 3.2%
30018-DC: STAT6 siNA duplex; sense SEQ ID NO: 100, antisense SEQ ID NO: 101; target CAGAAGAUCUUCAACGACA, site 1720 (sense CAGAAGAUCUUCAACGACATT; antisense UGUCGUUGAAGAUCUUCUGUU; sense: DNA at AGT, 2'-fluoro at CU, [invAb] at 5' end, 3' end, backbone not given here; antisense: sugars from the 5' end rrrfmffmmmmmffffffmmm, backbone not given here) [STAT6 siNA duplex; target CAGAAGAUCUUCAACGACA, site 1720]	66.8 ± 3.2%	64.8 ± 0.7%
30022-DC: STAT6 siNA duplex; sense SEQ ID NO: 108, antisense SEQ ID NO: 109; target CCAAGACCCGGGCAUCGCU, site 1037 (sense CCAAGACCCGGGCAUCGCUTT; antisense AGCGAUGCCCGGGUCUUGGUU; sense: DNA at AGT, 2'-fluoro at CU, [invAb] at 5' end, 3' end, backbone not given here; antisense: chemistry not given here; in the key) [STAT6 siNA duplex; target …UCGCU, site 1037]	56.1 ± 8.3%	51.5 ± 0%
29989-DC: STAT6 siNA duplex; sense SEQ ID NO: 42, antisense SEQ ID NO: 43; target GAAGGCUUCUCCGCCCAUU, site 3187 (sense GAAGGCUUCUCCGCCCAUUTT; antisense AAUGGGCGGAGAAGCCUUCUU; sense: DNA at AGT, 2'-fluoro at CU, [invAb] at 5' end, 3' end, backbone not given here; antisense: sugars from the 5' end rrrmmmfmmmmmmmfffffmm, backbone not given here) [STAT6 siNA duplex; target GAAGGCUUCUCCGCCCAUU, site 3187]	29.1 ± 3.8%	−18.3 ± 7.1%
30007-DC: STAT6 siNA duplex; sense SEQ ID NO: 78, antisense SEQ ID NO: 79; target GGAAGUUCAGGCUCUGAGA, site 3048 (sense GGAAGUUCAGGCUCUGAGATT; antisense UCUCAGAGCCUGAACUUCCUU; sense: sugars from the 5' end d5 f3 d3 f4 d6, [invAb] at 5' end, 3' end, backbone not given here; antisense: sugars from the 5' end rrrfmmmmfffmmmfffffmm, backbone not given here) [STAT6 siNA duplex; target GGAAGUUCAGGCUCUGAGA, site 3048]	59.8 ± 8.6%	8.1 ± 0.8%
30026-DC: STAT6 siNA duplex; sense SEQ ID NO: 116, antisense SEQ ID NO: 117; target GCAGUGGUUUGAUGGUGUC, site 1816 (sense GCAGUGGUUUGAUGGUGUCTT; antisense GACACCAUCAAACCACUGCUU; sense: DNA at AGT, 2'-fluoro at CU, [invAb] at 5' end, 3' end, backbone not given here; antisense: sugars from the 5' end rrrmffmffmmmffmffmfmm, backbone not given here) [STAT6 siNA duplex; target GCAGUGGUUUGAUGGUGUC, site 1816]	58.4 ± 8.1%	59.8 ± 1.1%
